# Patent US20080009418A1, “Selective Inhibitors” (Alchemia LTD., priority 2004, published 2008)
# Experiments:
# [1] = target: T1, Human δ-opioid (DOP) (Homo sapiens, UniProt P41143); test: Radioligand binding, human δ-opioid (DOP) membranes, FlashPlate, [3H]-Bremazocine; conditions: compound at 10 μM; for A1: inhibition of radioligand binding, human δ-opioid (DOP): [3H]-Bremazocine
# T1 construct: purchased Perkin Elmer Biosignal
# How it was run: (§1)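 Cloned human receptor membranes were coated onto FlashPlate wells and incubated with radioligand and compound (added from a 0.5 mM DMSO daughter plate) for 1 hour at room temperature in the dark. Scintillation counting gave percent inhibition, with DMSO defining total and reference ligand defining non-specific binding.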
# [2] = target: T2, Human κ-Opioid (KOP) (Homo sapiens, UniProt P41145); test: Radioligand binding, human κ-opioid (KOP) membranes, filtration, [3H]-Diprenorphine; conditions: compound at 10 μM; for A2: inhibition of radioligand binding, human κ-opioid (KOP): [3H]-Diprenorphine
# T2 construct: purchased Perkin Elmer Biosignal
# T2 sequence (P41145 whole entry): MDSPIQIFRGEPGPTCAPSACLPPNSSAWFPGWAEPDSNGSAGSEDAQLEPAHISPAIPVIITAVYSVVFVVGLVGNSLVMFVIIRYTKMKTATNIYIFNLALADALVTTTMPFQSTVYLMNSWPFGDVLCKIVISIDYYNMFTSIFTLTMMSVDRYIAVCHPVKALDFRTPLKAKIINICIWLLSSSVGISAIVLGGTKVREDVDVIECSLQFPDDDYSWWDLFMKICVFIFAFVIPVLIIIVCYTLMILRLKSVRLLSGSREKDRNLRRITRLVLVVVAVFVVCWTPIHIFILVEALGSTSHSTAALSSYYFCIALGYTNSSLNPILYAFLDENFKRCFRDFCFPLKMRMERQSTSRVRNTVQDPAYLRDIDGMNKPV
# How it was run: (§2)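 Membranes from cloned human receptors were incubated with compound and radioligand for 1 hour at room temperature. Bound ligand was collected on 0.3% PEI-soaked filters, washed with cold 50 mM Tris-HCl pH 7.4, and counted by scintillation. Percent inhibition was computed against DMSO totals and reference-ligand nonspecific wells.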
# [3] = target: T3, Human Melanocortin (MC3) (Homo sapiens, UniProt P41968); test: Radioligand binding, human melanocortin MC3 membranes, FlashPlate, [125I]-NDP-αMSH; conditions: compound at 10 μM; for A3: inhibition of radioligand binding, human melanocortin (MC3): [125I]-NDP-αMSH
# T3 construct: purchased Perkin Elmer Biosignal
# T3 sequence (P41968 whole entry): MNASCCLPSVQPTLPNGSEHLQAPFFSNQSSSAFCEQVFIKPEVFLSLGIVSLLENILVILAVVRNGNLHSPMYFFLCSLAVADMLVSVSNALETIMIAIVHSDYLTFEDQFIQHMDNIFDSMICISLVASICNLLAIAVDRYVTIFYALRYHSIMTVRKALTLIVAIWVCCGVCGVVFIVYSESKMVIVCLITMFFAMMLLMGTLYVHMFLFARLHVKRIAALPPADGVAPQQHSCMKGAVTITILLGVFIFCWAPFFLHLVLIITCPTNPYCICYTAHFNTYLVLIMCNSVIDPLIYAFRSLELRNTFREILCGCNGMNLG
# How it was run: as §1
# [4] = target: T4, Human Melanocortin (MC4) (Homo sapiens, UniProt P32245); test: Radioligand binding, human melanocortin MC4 membranes, FlashPlate, [125I]-NDP-αMSH; conditions: compound at 10 μM; for A4: inhibition of radioligand binding, human melanocortin (MC4): [125I]-NDP-αMSH
# T4 construct: purchased Perkin Elmer Biosignal
# T4 sequence (P32245 whole entry): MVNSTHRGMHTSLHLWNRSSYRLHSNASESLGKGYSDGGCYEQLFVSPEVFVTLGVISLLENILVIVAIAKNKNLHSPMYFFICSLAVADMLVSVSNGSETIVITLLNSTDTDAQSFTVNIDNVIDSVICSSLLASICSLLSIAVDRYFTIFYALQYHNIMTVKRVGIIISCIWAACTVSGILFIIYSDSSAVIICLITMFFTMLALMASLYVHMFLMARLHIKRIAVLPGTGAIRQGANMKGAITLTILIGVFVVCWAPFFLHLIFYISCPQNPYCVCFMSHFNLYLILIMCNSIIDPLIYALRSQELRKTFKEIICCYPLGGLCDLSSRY
# How it was run: as §1
# [5] = target: T5, Human melanocortin (MC5) (Homo sapiens, UniProt P33032); test: Radioligand binding, human melanocortin MC5 membranes, FlashPlate, [125I]-NDP-αMSH; conditions: compound at 10 μM; for A5: inhibition of radioligand binding, human melanocortin (MC5): [125I]-NDP-αMSH
# T5 construct: purchased Perkin Elmer Biosignal
# T5 sequence (P33032 whole entry): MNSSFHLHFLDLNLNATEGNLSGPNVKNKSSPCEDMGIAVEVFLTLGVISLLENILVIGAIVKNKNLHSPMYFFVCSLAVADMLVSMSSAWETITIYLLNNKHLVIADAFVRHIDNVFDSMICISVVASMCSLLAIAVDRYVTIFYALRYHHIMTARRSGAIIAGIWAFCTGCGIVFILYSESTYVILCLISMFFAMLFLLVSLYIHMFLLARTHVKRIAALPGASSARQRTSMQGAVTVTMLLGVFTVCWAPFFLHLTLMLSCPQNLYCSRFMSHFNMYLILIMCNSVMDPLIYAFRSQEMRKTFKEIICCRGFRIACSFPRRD
# How it was run: as §1
# [6] = target: T6, Human melanin-concentrating hormone (MCH1) (Homo sapiens, UniProt Q99705); test: Radioligand binding, human melanin-concentrating hormone MCH1 membranes, FlashPlate, [125I]-S36057; conditions: compound at 10 μM; for A6: inhibition of radioligand binding, human melanin-concentrating hormone (MCH1): [125I]-S36057
# T6 construct: purchased Perkin Elmer Biosignal
# T6 sequence (Q99705 whole entry): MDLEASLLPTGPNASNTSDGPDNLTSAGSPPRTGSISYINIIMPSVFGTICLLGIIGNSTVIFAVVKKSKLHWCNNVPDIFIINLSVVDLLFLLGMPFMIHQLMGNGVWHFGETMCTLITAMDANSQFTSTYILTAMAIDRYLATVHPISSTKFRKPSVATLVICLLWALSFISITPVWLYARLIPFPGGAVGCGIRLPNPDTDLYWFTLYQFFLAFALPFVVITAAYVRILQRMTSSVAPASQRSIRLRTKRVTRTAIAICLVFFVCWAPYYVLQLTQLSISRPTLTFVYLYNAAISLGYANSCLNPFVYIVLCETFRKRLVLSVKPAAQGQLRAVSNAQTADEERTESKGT
# How it was run: as §1
# [7] = target: T7, Human μ-opioid (MOP) (Homo sapiens, UniProt P35372); test: Radioligand binding, human μ-opioid (MOP) membranes, FlashPlate, [3H]-Naloxone; conditions: compound at 10 μM; for A7: inhibition of radioligand binding, human μ-opioid (MOP): [3H]-Naloxone
# T7 construct: purchased Perkin Elmer Biosignal
# T7 sequence (P35372 whole entry): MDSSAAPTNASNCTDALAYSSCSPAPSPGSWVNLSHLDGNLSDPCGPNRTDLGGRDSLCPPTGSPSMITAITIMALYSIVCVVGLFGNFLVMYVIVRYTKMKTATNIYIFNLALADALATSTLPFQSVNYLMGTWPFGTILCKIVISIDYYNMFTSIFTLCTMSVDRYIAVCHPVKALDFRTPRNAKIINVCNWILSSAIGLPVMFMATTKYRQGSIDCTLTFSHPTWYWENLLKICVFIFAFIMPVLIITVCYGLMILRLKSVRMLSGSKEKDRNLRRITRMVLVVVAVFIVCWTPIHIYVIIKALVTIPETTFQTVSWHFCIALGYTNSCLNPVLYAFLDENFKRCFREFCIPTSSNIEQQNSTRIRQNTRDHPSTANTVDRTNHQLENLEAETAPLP
# How it was run: as §1
# [8] = target: T8, Human neurokinin (NK1) (Homo sapiens, UniProt P25103); test: Radioligand binding, human neurokinin NK1 membranes, filtration, [125I]-Substance P; conditions: compound at 10 μM; for A8: inhibition of radioligand binding, human neurokinin (NK1): [125I]-Substance P
# T8 construct: purchased Perkin Elmer Biosignal
# T8 sequence (P25103 whole entry): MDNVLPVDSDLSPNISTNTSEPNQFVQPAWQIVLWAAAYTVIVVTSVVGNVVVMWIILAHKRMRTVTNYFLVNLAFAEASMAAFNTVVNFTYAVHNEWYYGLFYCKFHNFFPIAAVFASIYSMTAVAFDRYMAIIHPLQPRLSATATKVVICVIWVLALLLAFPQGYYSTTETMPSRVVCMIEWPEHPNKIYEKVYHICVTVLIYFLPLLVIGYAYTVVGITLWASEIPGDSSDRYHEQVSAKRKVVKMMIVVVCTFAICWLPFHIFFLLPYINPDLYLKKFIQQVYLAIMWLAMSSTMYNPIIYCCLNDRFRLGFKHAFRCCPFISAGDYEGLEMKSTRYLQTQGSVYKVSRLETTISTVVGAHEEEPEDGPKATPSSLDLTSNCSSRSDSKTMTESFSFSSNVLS
# How it was run: as §2
# [9] = target: T9, Human neuropeptide Y (NPY-Y1) (Homo sapiens, UniProt P25929); test: Radioligand binding, human neuropeptide Y NPY-Y1 membranes, FlashPlate, [125I]-PYY; conditions: compound at 10 μM; for A9: inhibition of radioligand binding, human neuropeptide Y (NPY-Y1): [125I]-PYY
# T9 construct: purchased Perkin Elmer Biosignal
# T9 sequence (P25929 1-384): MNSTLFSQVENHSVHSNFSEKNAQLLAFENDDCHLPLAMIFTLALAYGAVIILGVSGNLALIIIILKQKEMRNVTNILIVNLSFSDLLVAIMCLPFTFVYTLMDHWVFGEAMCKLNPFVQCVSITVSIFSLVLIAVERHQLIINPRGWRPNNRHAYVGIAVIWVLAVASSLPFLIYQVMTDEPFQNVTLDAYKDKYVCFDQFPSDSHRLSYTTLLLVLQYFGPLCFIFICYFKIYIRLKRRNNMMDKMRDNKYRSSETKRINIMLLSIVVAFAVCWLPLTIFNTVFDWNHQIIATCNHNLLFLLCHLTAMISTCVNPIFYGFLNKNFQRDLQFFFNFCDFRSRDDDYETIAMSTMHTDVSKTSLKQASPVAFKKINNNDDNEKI
# How it was run: as §1
# [10] = target: T10, Human opioid (ORL1) (Homo sapiens, UniProt P41146); test: Radioligand binding, human opioid ORL1 membranes, FlashPlate, [125I]-Nociceptin; conditions: compound at 10 μM; for A10: inhibition of radioligand binding, human opioid (ORL1): [125I]-Nociceptin
# T10 construct: purchased Perkin Elmer Biosignal
# T10 sequence (P41146 whole entry): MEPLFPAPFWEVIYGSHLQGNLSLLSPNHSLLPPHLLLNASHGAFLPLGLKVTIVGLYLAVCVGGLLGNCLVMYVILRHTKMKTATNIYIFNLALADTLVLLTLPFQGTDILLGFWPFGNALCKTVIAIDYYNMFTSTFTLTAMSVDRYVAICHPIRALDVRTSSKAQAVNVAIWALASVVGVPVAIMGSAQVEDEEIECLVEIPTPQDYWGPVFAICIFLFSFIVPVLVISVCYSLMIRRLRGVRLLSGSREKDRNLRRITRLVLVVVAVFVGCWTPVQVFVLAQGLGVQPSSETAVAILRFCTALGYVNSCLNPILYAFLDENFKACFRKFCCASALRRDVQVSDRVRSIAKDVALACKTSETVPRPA
# How it was run: as §1
# [11] = target: T11, Mouse urotensin (mUR2) (Mus musculus, UniProt Q8VIH9); test: Radioligand binding, mouse urotensin mUR2 membranes, FlashPlate, [125I]-Urotensin II; conditions: compound at 10 μM; for A11: inhibition of radioligand binding, mouse urotensin (mUR2): [125I]-Urotensin II
# T11 construct: purchased Perkin Elmer Biosignal
# T11 sequence (Q8VIH9 1-385): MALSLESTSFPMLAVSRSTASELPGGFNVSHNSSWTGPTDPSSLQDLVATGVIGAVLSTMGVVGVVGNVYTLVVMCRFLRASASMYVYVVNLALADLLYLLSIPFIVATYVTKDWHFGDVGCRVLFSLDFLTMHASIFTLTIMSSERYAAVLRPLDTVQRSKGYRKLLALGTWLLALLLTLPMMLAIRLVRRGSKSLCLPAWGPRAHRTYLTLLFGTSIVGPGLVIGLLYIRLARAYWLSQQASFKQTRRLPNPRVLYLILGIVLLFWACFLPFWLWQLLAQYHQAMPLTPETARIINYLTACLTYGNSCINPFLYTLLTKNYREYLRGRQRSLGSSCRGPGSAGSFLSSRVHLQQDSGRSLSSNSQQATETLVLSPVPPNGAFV
# How it was run: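 Cloned mouse urotensin (mUR2) receptor membranes from Perkin Elmer Biosignal were immobilized in FlashPlate microplates using a proprietary coating. Each well got 19.5 μl buffer, then 0.5 μl of DMSO, reference ligand, or compound. Adding 5 μl of [125I]-Urotensin II, diluted to 5× final concentration in binding buffer, started binding. Plates were sealed with TopSeal-A and incubated 1 hour at room temperature in the dark. Wells were counted for 30 seconds each on a TopCount after a 60-second delay, and percentage inhibition was calculated.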
# T1 sequence (P41143 whole entry): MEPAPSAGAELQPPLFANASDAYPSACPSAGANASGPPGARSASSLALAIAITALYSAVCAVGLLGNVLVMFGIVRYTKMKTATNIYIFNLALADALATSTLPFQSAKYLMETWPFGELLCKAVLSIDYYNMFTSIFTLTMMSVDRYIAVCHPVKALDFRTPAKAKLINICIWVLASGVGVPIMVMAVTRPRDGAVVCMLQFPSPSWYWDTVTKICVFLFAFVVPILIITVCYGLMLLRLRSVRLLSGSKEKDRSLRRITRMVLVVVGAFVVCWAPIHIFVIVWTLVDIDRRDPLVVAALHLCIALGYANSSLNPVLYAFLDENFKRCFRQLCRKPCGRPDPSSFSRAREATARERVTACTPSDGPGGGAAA
smiles,measurement,setting,value
CO[C@H]1[C@H](O)[C@@H](COCc2ccc(-c3ccccc3)cc2)OC(OCc2ccccc2)[C@@H]1NC(=O)CCCN (stereo partly drawn) [compound 84],A1 radioligand binding inhibition,[1]; human δ-opioid (DOP) membranes,− (“−” indicates less than 50% inhibition at 10 μM)
same,A2 radioligand binding inhibition,[2]; human κ-opioid (KOP) membranes,− (“−” indicates less than 50% inhibition at 10 μM)
same,A3 radioligand binding inhibition,[3]; human melanocortin MC3 membranes,− (“−” indicates less than 50% inhibition at 10 μM)
same,A4 radioligand binding inhibition,[4]; human melanocortin MC4 membranes,− (“−” indicates less than 50% inhibition at 10 μM)
same,A5 radioligand binding inhibition,[5]; human melanocortin MC5 membranes,− (“−” indicates less than 50% inhibition at 10 μM)
same,A6 radioligand binding inhibition,[6]; human MCH1 membranes,− (“−” indicates less than 50% inhibition at 10 μM)
same,A7 radioligand binding inhibition,[7]; human μ-opioid (MOP) membranes,− (“−” indicates less than 50% inhibition at 10 μM)
same,A8 radioligand binding inhibition,[8]; human neurokinin NK1 membranes,+ (“+” indicates greater than 50% inhibition at 10 μM)
same,A9 radioligand binding inhibition,[9]; human NPY-Y1 membranes,− (“−” indicates less than 50% inhibition at 10 μM)
same,A10 radioligand binding inhibition,[10]; human ORL1 membranes,− (“−” indicates less than 50% inhibition at 10 μM)
same,A11 radioligand binding inhibition,[11]; mouse urotensin mUR2 membranes,− (“−” indicates less than 50% inhibition at 10 μM)
N=C(N)NCCC(=O)N[C@H]1C(OCc2ccc(Cl)cc2)O[C@H](COCc2ccc(Cl)cc2)[C@@H](O)[C@@H]1OCc1ccc(-c2ccccc2)cc1 (stereo partly drawn) [compound 538],"A1: inhibition of radioligand binding, human δ-opioid (DOP)",[1],− (“−” indicates less than 50% inhibition at 10 μM)
same,"A2: inhibition of radioligand binding, human κ-opioid (KOP)",[2]; 10 µM,+ (“+” indicates greater than 50% inhibition at 10 μM)
same,"A3: inhibition of radioligand binding, human melanocortin (MC3)",[3],+ (“+” indicates greater than 50% inhibition at 10 μM)
same,"A4: inhibition of radioligand binding, human melanocortin (MC4)",[4],+ (“+” indicates greater than 50% inhibition at 10 μM)
same,"A5: inhibition of radioligand binding, human melanocortin (MC5)",[5],+ (“+” indicates greater than 50% inhibition at 10 μM)
same,"A6: inhibition of radioligand binding, human melanin-concentrating hormone (MCH1)",[6],+ (“+” indicates greater than 50% inhibition at 10 μM)
same,"A7: inhibition of radioligand binding, human μ-opioid (MOP)",[7],− (“−” indicates less than 50% inhibition at 10 μM)
same,"A8: inhibition of radioligand binding, human neurokinin (NK1)",[8],+ (“+” indicates greater than 50% inhibition at 10 μM)
same,"A9: inhibition of radioligand binding, human neuropeptide Y (NPY-Y1)",[9]; 10 µM,+ (“+” indicates greater than 50% inhibition at 10 μM)
same,"A10: inhibition of radioligand binding, human opioid (ORL1)",[10],+ (“+” indicates greater than 50% inhibition at 10 μM)
same,"A11: inhibition of radioligand binding, mouse urotensin (mUR2)",[11]; 10 µM,+ (“+” indicates greater than 50% inhibition at 10 μM)
"NCCCC(=O)NC1C(OCc2ccc(Cl)cc2)OC(COCc2ccc(Cl)cc2)C(O)C1OCc1ccc(Cl)cc1 (single isomer, unassigned) [compound 493]","A1: inhibition of radioligand binding, human δ-opioid (DOP)",[1],− (“−” indicates less than 50% inhibition at 10 μM)
same,"A2: inhibition of radioligand binding, human κ-opioid (KOP)",[2],− (“−” indicates less than 50% inhibition at 10 μM)
same,"A3: inhibition of radioligand binding, human melanocortin (MC3)",[3]; 10 µM,− (“−” indicates less than 50% inhibition at 10 μM)
same,"A4: inhibition of radioligand binding, human melanocortin (MC4)",[4],+ (“+” indicates greater than 50% inhibition at 10 μM)
same,"A5: inhibition of radioligand binding, human melanocortin (MC5)",[5],+ (“+” indicates greater than 50% inhibition at 10 μM)
same,"A6: inhibition of radioligand binding, human melanin-concentrating hormone (MCH1)",[6],+ (“+” indicates greater than 50% inhibition at 10 μM)
same,"A7: inhibition of radioligand binding, human μ-opioid (MOP)",[7],− (“−” indicates less than 50% inhibition at 10 μM)
same,"A8: inhibition of radioligand binding, human neurokinin (NK1)",[8],+ (“+” indicates greater than 50% inhibition at 10 μM)
same,"A9: inhibition of radioligand binding, human neuropeptide Y (NPY-Y1)",[9],− (“−” indicates less than 50% inhibition at 10 μM)
same,"A10: inhibition of radioligand binding, human opioid (ORL1)",[10],+ (“+” indicates greater than 50% inhibition at 10 μM)
same,"A11: inhibition of radioligand binding, mouse urotensin (mUR2)",[11],− (“−” indicates less than 50% inhibition at 10 μM)
